Data: ChEMBL document CHEMBL4118162, “Discovery of novel anti-tuberculosis agents with pyrrolo[1,2-a]quinoxaline-based scaffold” (Bioorg Med Chem Lett, 2018)
Converted amounts (≈) assume the structure as drawn.

Experiments:
[1] = Solubility of the compound in water at 500 ug/mL by HPLC method; format: physicochemical
[2] = system: Mycobacterium tuberculosis; assay: Antitubercular activity against Mycobacterium tuberculosis H37Ra up to 7 days; format: functional; conditions: 168 h
[3] = Cytotoxicity against human LO2 cells assessed as growth inhibition up to 20 uM after 48 hrs by MTT assay; format: cell-based, L02; conditions: read-out: GI
[4] = Cytotoxicity against human SKOV3 cells assessed as growth inhibition up to 20 uM after 48 hrs by MTT assay; format: cell-based, SK-OV-3; conditions: read-out: GI
[5] = target: T1, Enoyl-[acyl-carrier-protein] reductase [NADH] (Mycobacterium tuberculosis) (UniProt P9WGR1); assay: Inhibition of Mycobacterium tuberculosis InhA at 100 uM using trans-2-decenoyl-N-acetylcysteamine as substrate preincubated for 1 hr followed by substrate addition measured every 30 secs for 5 mins
T1 sequence (whole entry): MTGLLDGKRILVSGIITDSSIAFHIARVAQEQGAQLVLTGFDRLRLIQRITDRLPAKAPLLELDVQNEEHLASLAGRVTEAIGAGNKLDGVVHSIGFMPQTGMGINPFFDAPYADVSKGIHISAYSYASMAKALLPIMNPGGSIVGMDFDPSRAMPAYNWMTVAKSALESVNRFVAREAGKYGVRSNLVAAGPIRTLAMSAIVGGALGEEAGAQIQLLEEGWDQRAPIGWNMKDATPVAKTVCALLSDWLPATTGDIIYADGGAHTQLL

[6] = system: Mycobacterium tuberculosis; assay: Antitubercular activity against Mycobacterium tuberculosis H37Ra assessed as as inhibition of bacterial growth at 10 ug/ml up to 7 days; format: functional; conditions: 168 h, read-out: GI
[7] = Cytotoxicity against human MDA231 cells assessed as growth inhibition up to 20 uM after 48 hrs by MTT assay; format: cell-based, MDA-MB-231; conditions: read-out: GI
[8] = Effective permeability of the compound in PBS/EtOH at 50 ug/mL after 18 hrs by PAMPA-BBB assay
[9] = Solubility of the compound in water at 180 uM by HPLC method; format: physicochemical
[10] = target: T2, Enoyl-[acyl-carrier-protein] reductase [NADH] (Mycobacterium tuberculosis, UniProt P9WGR1); assay: Inhibition of Mycobacterium tuberculosis InhA using trans-2-decenoyl-N-acetylcysteamine as substrate preincubated for 1 hr followed by substrate addition measured every 30 secs for 5 mins
T2 sequence (P9WGR1 whole entry): T1 sequence (whole entry)

SMILES | solubility [1] [µg/mL] | MIC90 [2] [µg/mL] | inhibition at 48 h [3] [%] | inhibition at 48 h [4] [%] | inhibition [5] [%] | inhibition of growth at 10 µg/mL [6] [%] | inhibition at 48 h [7] [%] | Papp at 18 h, 50 ug/mL [8] [×10⁻⁶ cm/s] | solubility at 180 µM [9] [µg/mL] | IC50 [10] [µM]
CCCNCc1cc(-c2ccccc2F)n2c1cnc1cc(Cl)ccc12 | 17.5 (≈ 47.6 µM) | 10 (≈ 27.2 µM) | 73.7 | 77 | 24.8 | ≥ 90 | 74.5 | – | – | –
CCN(CC)Cc1cc(-c2ccccc2F)n2c1cnc1ccccc12 | – | > 50 | – | – | – | ≥ 90 | – | – | – | –
CCCCNCc1cc(-c2ccccc2F)n2c1cnc1cc(Cl)ccc12 | 20 (≈ 52.3 µM) | 10 (≈ 26.2 µM) | 73.7 | 75.9 | 33.3 | ≥ 90 | 74.5 | – | – | –
CC(C)NCc1cc(-c2ccccc2F)n2c1cnc1ccccc12 | 70.5 (≈ 212 µM) | 10 to 50 (≈ 30 to 150 µM) | – | – | 17.3 | ≥ 90 | – | – | – | –
Fc1ccccc1-c1cc(CNCc2c(F)cccc2Cl)c2cnc3ccccc3n12 | 20.8 (≈ 48 µM) | > 50 | – | – | – | ≥ 90 | – | – | – | –
COc1ccc(CCNCc2cc(-c3ccccc3F)n3c2cnc2ccccc23)cc1OC | 50.7 (≈ 111 µM) | 10 to 50 (≈ 22 to 110 µM) | – | – | 6.28 | ≥ 90 | – | – | – | –
Fc1ccc2c(c1)ncc1c(CNCc3ccccc3)cc(-c3ccccc3F)n12 | 4.9 (≈ 12.3 µM) | 10 (≈ 25 µM) | 20.1 | -7.09 | 48.5 | ≥ 90 | -8.04 | – | – | –
Fc1ccccc1-c1cc(CN2CCN(c3ccccc3C(F)(F)F)CC2)c2cnc3cc(Cl)ccc3n12 | < 2.5 | > 50 | – | – | – | ≥ 90 | – | – | – | –
Fc1ccccc1-c1cc(CN2CCOCC2)c2cnc3cc(Cl)ccc3n12 | < 2.5 | > 50 | – | – | – | ≥ 90 | – | – | – | –
CCCCNCc1cc(-c2ccccc2F)n2c1cnc1cc(Br)ccc12 | 6.74 (≈ 15.8 µM) | 10 (≈ 23.5 µM) | 68.7 | 66.3 | 50.2 | ≥ 90 | 70.8 | – | – | –
CCN(CC)Cc1cc(-c2ccccc2F)n2c1cnc1cc(Cl)ccc12 | – | 10 to 50 (≈ 26.2 to 131 µM) | – | – | – | ≥ 90 | – | – | – | –
Fc1ccccc1-c1cc(CNCCc2ccc(Br)cc2)c2cnc3ccccc3n12 | < 2.5 | 5 (≈ 10.5 µM) | 72.3 | 69.3 | 17.3 | ≥ 90 | 76.1 | – | – | –
Fc1ccccc1-c1cc(CNCc2ccccc2)c2cnc3ccccc3n12 | 21.1 (≈ 55.3 µM) | 10 to 50 (≈ 26.2 to 131 µM) | – | – | 22.1 | ≥ 90 | – | – | – | –
COc1ccc(CCNCc2cc(-c3ccccc3F)n3c2cnc2cc(Cl)ccc23)cc1OC | – | 5 (≈ 10.2 µM) | 53.5 | 84.4 | 40.4 | ≥ 90 | 76.4 | 9.39 | 90 (≈ 184 µM) | –
CCCNCc1cc(-c2ccccc2F)n2c1cnc1ccccc12 | 73.3 (≈ 220 µM) | 10 to 50 (≈ 30 to 150 µM) | – | – | 5.21 | ≥ 90 | – | – | – | –
Fc1ccccc1-c1cc(CNCc2c(F)cccc2Cl)c2cnc3cc(Cl)ccc3n12 | < 2.5 | > 50 | – | – | – | ≥ 90 | – | – | – | –
Fc1ccccc1-c1cc(CNCCc2ccc(Br)cc2)c2cnc3cc(Cl)ccc3n12 | < 2.5 | 5 (≈ 9.83 µM) | 40.1 | 71.8 | 64.9 | ≥ 90 | 70.5 | – | – | 48
CC(C)NCc1cc(-c2ccccc2F)n2c1cnc1cc(Cl)ccc12 | 33.2 (≈ 90.1 µM) | 10 (≈ 27.2 µM) | 76.4 | 76.4 | 27.4 | ≥ 90 | 71.7 | – | – | –
CCCCNCc1cc(-c2ccccc2F)n2c1cnc1cc(F)ccc12 | 8.61 (≈ 23.6 µM) | 25 (≈ 68.4 µM) | – | – | 7.88 | ≥ 90 | – | – | – | –
Fc1ccccc1-c1cc(CNCc2ccccc2)c2cnc3cc(Cl)ccc3n12 | < 2.5 | 5 (≈ 12 µM) | 43.7 | 19.4 | 37 | ≥ 90 | 27.8 | – | – | –
CCCCNCc1cc(-c2ccccc2F)n2c1cnc1ccccc12 | 120 (≈ 346 µM) | 10 to 50 (≈ 28.8 to 144 µM) | – | – | 14.4 | ≥ 90 | – | – | – | –
Fc1ccccc1-c1cc(CNCc2ccccc2)c2cnc3cc(Br)ccc3n12 | < 2.5 | 10 (≈ 21.7 µM) | 5.38 | 13.3 | 62 | ≥ 90 | 32.1 | – | – | 54
CCN(Cc1ccccc1)Cc1cc(-c2ccccc2F)n2c1cnc1cc(Cl)ccc12 | < 2.5 | > 50 | – | – | – | ≥ 90 | – | – | – | –
